Assay results taken from patent US20230416329A1, “A PEPTIDE WITH DISULFIDE BONDS AND INHIBITORY ACTIVITY AGAINST SERINE PROTEASES, DERIVED HYBRID PEPTIDES THEREOF, AND USES THEREOF” (INSTITUTE OF MATERIA MEDICA , CHINESE ACADEMY OF MEDICAL …, priority 2020, published 2023).
Like-named read-outs stand apart in the source and are kept apart here. Bridge positions count the residues as written; N and C are the ends. Peptide text beside a SMILES is read from it.

What was measured:
elastase = elastase (Sus scrofa, UniProt P00772); assay: in vitro
Chain of elastase (P00772 27-266): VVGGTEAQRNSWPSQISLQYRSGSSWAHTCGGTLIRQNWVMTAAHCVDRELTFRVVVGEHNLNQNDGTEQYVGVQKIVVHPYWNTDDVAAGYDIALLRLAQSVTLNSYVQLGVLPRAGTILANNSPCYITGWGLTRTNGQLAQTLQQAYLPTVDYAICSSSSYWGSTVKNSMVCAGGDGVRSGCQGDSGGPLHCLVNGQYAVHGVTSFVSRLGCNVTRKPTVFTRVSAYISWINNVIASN
Procedure: FIG. 19. […] At different time point, 25 μL aliquots was taken out, and 10% (v/v) TFA was added to terminate the reaction.
(§1) Mix by centrifugation at 8000 rpm for 30 seconds.
Arrange a certain volume of 0.5 μg/μL elastase solution in another sterile EP. Incubate the EP tubes containing peptides and enzymes at 37° C. for 5 min, and then add 4.5 μL of elastase solution to each EP tube containing peptides and mix well. Start timing and remove 25 μL of reaction solution at 1.5, 3.0, 4.5, 6.0, 9.0, 15.0, 30.0, and 60.0 min later, respectively. Add 3.75 μL of 10% TFA to terminate the reaction and mix well by centrifugation at 8000 rpm for 30 seconds.
Referring to the experimental method in Example 5, in vitro stability of salmon Calcitonin analogs with oral administration activity to the enzymatic hydrolysis by trypsin, chymotrypsin and elastase were performed.
Referring to the experimental method in Example 5, in vitro stability of IL-17A inhibitory peptides towards the enzymatic hydrolysis by trypsin, chymotrypsin and elastase were performed.

chymotrypsin = chymotrypsin (Bos taurus, UniProt P00766); assay: in vitro
Method in brief: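 Peptide and 0.05 μg/μL chymotrypsin were preincubated at 37 °C for 5 min, then mixed. Aliquots taken from 1.5 up to 60.0 min were quenched with 10% TFA, and remaining peptide was measured as RP-HPLC peak area.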

DPP-IV = DPP-IV (Homo sapiens, UniProt P27487); assay: Tolerance of GLP-1 and its analogues to DPP-IV (RP-HPLC remaining peak area); format: in vitro ADME; settings: peptide 25 μM, DPP-IV 0.5 ng/μL, 37° C.; for Remaining peak area (%)/DPP-IV: 0.0 h; for remaining at 0.5 h, 25 μM / remaining at 2 h, 25 μM / remaining at 4 h, 25 μM / remaining at 8 h, 25 μM / remaining at 12 h, 25 μM: isolated DPP-IV enzyme in buffer, pH 8
Chain of DPP-IV (P27487 whole entry, species assumed): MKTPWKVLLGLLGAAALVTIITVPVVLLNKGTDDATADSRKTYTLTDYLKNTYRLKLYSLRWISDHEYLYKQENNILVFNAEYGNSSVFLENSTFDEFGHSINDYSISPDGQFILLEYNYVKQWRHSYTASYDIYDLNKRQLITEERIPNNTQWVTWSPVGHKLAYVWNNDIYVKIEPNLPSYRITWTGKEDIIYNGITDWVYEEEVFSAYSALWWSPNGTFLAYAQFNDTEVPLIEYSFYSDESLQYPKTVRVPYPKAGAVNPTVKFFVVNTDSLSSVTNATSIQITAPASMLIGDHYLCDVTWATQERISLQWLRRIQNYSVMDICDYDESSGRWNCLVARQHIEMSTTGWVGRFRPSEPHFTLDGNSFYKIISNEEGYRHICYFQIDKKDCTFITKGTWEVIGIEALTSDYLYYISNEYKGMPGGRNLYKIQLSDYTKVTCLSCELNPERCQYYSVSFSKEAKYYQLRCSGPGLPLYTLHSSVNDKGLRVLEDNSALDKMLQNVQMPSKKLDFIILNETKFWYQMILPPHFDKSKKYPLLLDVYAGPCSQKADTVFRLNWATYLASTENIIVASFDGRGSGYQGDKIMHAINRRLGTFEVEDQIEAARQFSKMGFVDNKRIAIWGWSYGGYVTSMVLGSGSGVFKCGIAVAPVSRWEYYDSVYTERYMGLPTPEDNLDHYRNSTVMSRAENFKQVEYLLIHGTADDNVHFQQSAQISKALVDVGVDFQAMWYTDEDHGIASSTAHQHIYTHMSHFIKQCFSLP
Procedure: as §1
(2) Arrange a certain volume of 0.005 μg/μL DPP-IV solution in another sterile EP.

[1] = Stability of GLP-1 and its analogues in human serum; settings: 25% (v/v) human serum; for Remaining peak area (%)/human serum: 0.0 h, peptide 0.03 mM, 37° C.; for remaining at 0.5 h, 0.03 mM / remaining at 2 h, 0.03 mM / remaining at 4 h, 0.03 mM / remaining at 8 h, 0.03 mM / remaining at 12 h, 0.03 mM: human, pH 7
NEP24.11 = NEP24.11 (Homo sapiens, UniProt P08473); assay: Tolerance of GLP-1 and its analogues to NEP24.11 (RP-HPLC remaining peak area); format: in vitro ADME; settings: peptide 30 μM, NEP24.11 1.0 ng/μL; for Remaining peak area (%)/NEP24.11: 0.0 h; for remaining at 0.5 h, 30 μM / remaining at 2 h, 30 μM / remaining at 4 h, 30 μM / remaining at 8 h, 30 μM: isolated NEP24.11 enzyme in buffer; for remaining at 0.5 h, 30 μM: pH 7.4, 0.5 h; for remaining at 2 h, 30 μM: pH 7.4, 2.0 h; for remaining at 4 h, 30 μM: pH 7.4, 4.0 h
Chain of NEP24.11 (P08473 whole entry): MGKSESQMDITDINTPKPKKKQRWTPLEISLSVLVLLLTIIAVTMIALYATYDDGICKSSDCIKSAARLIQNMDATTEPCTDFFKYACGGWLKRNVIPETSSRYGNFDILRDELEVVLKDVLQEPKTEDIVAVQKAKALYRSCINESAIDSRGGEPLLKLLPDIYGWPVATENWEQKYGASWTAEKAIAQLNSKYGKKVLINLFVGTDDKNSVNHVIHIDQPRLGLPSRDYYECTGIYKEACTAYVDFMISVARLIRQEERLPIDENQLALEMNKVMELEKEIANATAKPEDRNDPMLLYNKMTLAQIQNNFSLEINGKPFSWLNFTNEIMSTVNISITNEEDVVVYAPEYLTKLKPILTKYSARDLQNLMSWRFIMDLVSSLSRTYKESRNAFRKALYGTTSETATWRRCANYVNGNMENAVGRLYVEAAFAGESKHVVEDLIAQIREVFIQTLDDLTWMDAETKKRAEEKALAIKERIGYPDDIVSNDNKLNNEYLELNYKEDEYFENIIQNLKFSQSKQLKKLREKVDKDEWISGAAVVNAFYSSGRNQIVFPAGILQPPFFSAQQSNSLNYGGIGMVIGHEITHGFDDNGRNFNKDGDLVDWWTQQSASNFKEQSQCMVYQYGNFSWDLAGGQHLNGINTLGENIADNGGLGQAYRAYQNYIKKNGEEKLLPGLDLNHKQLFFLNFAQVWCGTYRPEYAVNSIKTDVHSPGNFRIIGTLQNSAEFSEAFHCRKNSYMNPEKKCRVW
Procedure: as §1
Arrange a certain volume of 0.04 μg/μL NEP24.11 enzyme solution in another sterile EP.

trypsin = target: T1, trypsin (Bos taurus, UniProt P00760); assay: in vitro; settings: isolated enzyme trypsin, pH 7.8
T1 sequence (P00760 24-246): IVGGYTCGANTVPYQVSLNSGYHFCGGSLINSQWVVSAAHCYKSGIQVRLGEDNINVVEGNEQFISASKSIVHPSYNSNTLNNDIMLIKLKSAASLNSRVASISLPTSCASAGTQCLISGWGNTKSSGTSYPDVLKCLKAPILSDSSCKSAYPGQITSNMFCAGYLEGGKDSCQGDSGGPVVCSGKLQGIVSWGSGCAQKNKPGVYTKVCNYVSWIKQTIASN
Method in brief: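 Peptides were preincubated for 5 min at 37 °C and then digested with 0.05 μg/μL trypsin solution (stock). Remaining intact peptide was quantified as RP-HPLC peak area.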

[2] = isolated enzyme chymotrypsin, pH 7.8, Remaining peak area (%)/chymotrypsin
[3] = pH 7.4, 8.0 h, 37° C., read-out: Remaining peak area (%)/NEP24.11

remaining at 0.025 h, 60 μM (chymotrypsin; [2]) [%]	remaining at 0.05 h, 60 μM (chymotrypsin; [2]) [%]	remaining at 0.075 h, 60 μM (chymotrypsin; [2]) [%]	remaining at 0.1 h, 60 μM (chymotrypsin; [2]) [%]	Remaining peak area (%)/human serum [1] [%]	serum stability (in words) [1]	remaining at 0.5 h, 0.03 mM [1] [%]	remaining at 2 h, 0.03 mM [1] [%]	remaining at 4 h, 0.03 mM [1] [%]	remaining at 8 h, 0.03 mM [1] [%]	remaining at 12 h, 0.03 mM [1] [%]	Compound	Remaining peak area (%)/DPP-IV (DPP-IV) [%]	remaining at 0.5 h, 25 μM (DPP-IV) [%]	remaining at 2 h, 25 μM (DPP-IV) [%]	remaining at 4 h, 25 μM (DPP-IV) [%]	remaining at 8 h, 25 μM (DPP-IV) [%]	remaining at 12 h, 25 μM (DPP-IV) [%]	Remaining peak area (%)/NEP24.11 (NEP24.11; 37° C.) [%]	remaining at 0.5 h, 30 μM (NEP24.11; 37° C.) [%]	remaining at 2 h, 30 μM (NEP24.11; 37° C.) [%]	also measured
85.5	93.8 ± 2.4	89.6	91.6 ± 5.3								CC[C@H](C)[C@H](N)C(=O)N[C@@H](Cc1c[nH]cn1)C(=O)N[C@H](C(=O)N[C@H](C(=O)N[C@H](C(=O)N1CCC[C@H]1C(=O)N[C@@H](C)C(=O)N[C@@H](CC(=O)O)C(=O)N[C@@H](CC(C)C)C(=O)N[C@@H](Cc1c[nH]c2ccccc12)C(=O)N[C@@H](CC(=O)O)C(=O)N[C@@H](Cc1c[nH]c2ccccc12)C(=O)N[C@H](C(=O)N[C@@H](CC(N)=O)C(=O)NCC(=O)N[C@H](C(=O)N[C@H]1CSSC[C@@H](C(=O)N[C@@H](CCC(N)=O)C(=O)O)NC(=O)[C@H]([C@@H](C)CC)NC(=O)[C@@H]2CCCN2C(=O)[C@@H]2CCCN2C(=O)[C@H]([C@@H](C)CC)NC(=O)[C@H](CO)NC(=O)[C@H](C)NC(=O)[C@H]([C@@H](C)O)NC1=O)[C@@H](C)CC)[C@@H](C)CC)[C@@H](C)CC)[C@@H](C)O)C(C)C [17A-EC] (H-IHVTIPADLWDWINGICTASIPPICQ-OH; disulfide 17-25)										stability towards elastase hydrolysis (in words) (elastase): tolerated to the degradation of corresponding serine proteases; Remaining peak area (%)/chymotrypsin (chymotrypsin; 0 h): 100.0 ± 0.0%; remaining at 0.25 h, 60 μM (chymotrypsin; [2]): 79.8 ± 2.6%; remaining at 0.5 h, 60 μM (chymotrypsin; [2]): 80.9%; remaining at 1 h, 60 μM (chymotrypsin; [2]): 68%
67.1 ± 4.9	55.2 ± 0.6	47.1 ± 1.4	40.4 ± 1	100.0 ± 0.0	good serum stability	88.2	92 ± 5.9	78.7 ± 5.7	58.2	43.6 ± 0.3	CC[C@H](C)[C@H](NC(=O)[C@H](Cc1ccccc1)NC(=O)[C@H](CCC(=O)O)NC(=O)[C@H](CCCCN)NC(=O)[C@H](C)NC(=O)[C@H](C)NC(=O)[C@H](CCC(N)=O)NC(=O)CNC(=O)[C@H](CCC(=O)O)NC(=O)[C@H](CC(C)C)NC(=O)[C@H](Cc1ccc(O)cc1)NC(=O)[C@H](CO)NC(=O)[C@H](CO)NC(=O)[C@@H](NC(=O)[C@H](CC(=O)O)NC(=O)[C@H](CO)NC(=O)[C@@H](NC(=O)[C@H](Cc1ccccc1)NC(=O)[C@@H](NC(=O)CNC(=O)[C@H](CCC(=O)O)NC(=O)[C@H](C)NC(=O)[C@H](Cc1c[nH]cn1)NC(=O)CNC(=O)CNC(=O)[C@@H](NC(=O)[C@@H]1CCCN1C(=O)[C@@H](NC(=O)CN)[C@@H](C)CC)[C@@H](C)CC)[C@@H](C)O)[C@@H](C)O)C(C)C)C(=O)N[C@@H](C)C(=O)N[C@@H](Cc1c[nH]c2ccccc12)C(=O)N[C@@H](CC(C)C)C(=O)N[C@H](C(=O)N[C@@H](CCCCN)C(=O)NCC(=O)N[C@@H](CCCNC(=N)N)C(=O)NCC(=O)NCC(=O)N[C@@H](CCCCN)C(=O)NCC(=O)N[C@@H](CCCNC(=N)N)C(=O)N[C@H]1CSSC[C@@H](C(=O)N[C@@H](Cc2ccccc2)C(=O)N2CCC[C@H]2C(=O)O)NC(=O)[C@H]([C@@H](C)CC)NC(=O)[C@@H]2CCCN2C(=O)[C@@H]2CCCN2C(=O)[C@H]([C@@H](C)CC)NC(=O)[C@H](CO)NC(=O)[C@H](CCCCN)NC(=O)[C@H]([C@@H](C)O)NC1=O)C(C)C [D-GLP-1-BT1]	100.0 ± 0.0	88 ± 6.2	95.9 ± 2.3	96.9 ± 2	92 ± 3.9	79 ± 4.6	100.0 ± 0.0	80.3 ± 3.6	85.8 ± 2.7	remaining at 4 h, 30 μM (NEP24.11; 37° C.): 80.1 ± 2.1%; remaining at 8 h, 30 μM (NEP24.11; [3]): 78.2 ± 3.9%; remaining at 8 h, 30 μM (NEP24.11; pH 7.4, 8 hours, read-out: remaining amount after NEP24.11 hydrolysis): ~80%; remaining at 0.15 h, 60 μM (chymotrypsin; [2]): 31.3 ± 0.7%; remaining at 0.025 h, 60 μM (trypsin): 96.9 ± 3.1%; remaining at 0.05 h, 60 μM (trypsin): 100 ± 2.5%; remaining at 0.075 h, 60 μM (trypsin): 96.5 ± 2.1%; remaining at 0.1 h, 60 μM (trypsin): 97.3 ± 3.6%; remaining at 0.15 h, 60 μM (trypsin): 98 ± 3.1%; remaining at 0.25 h, 60 μM (trypsin): 95.9 ± 3.2%; remaining at 0.5 h, 60 μM (trypsin): 98.1 ± 4.4%; remaining at 1 h, 60 μM (trypsin): 91 ± 7.6%
54.9 ± 3.8	43.3 ± 7	34.5 ± 7.4	27.1 ± 2.9	100.0 ± 0.0	good serum stability	80.4 ± 4	53.6 ± 7.6	46.5 ± 3.5	7.2 ± 1.3	9.1 ± 3.9	CC[C@H](C)[C@H](NC(=O)[C@H](Cc1ccccc1)NC(=O)[C@H](CCC(=O)O)NC(=O)[C@H](CCCCN)NC(=O)[C@H](C)NC(=O)[C@H](C)NC(=O)[C@H](CCC(N)=O)NC(=O)CNC(=O)[C@H](CCC(=O)O)NC(=O)[C@H](CC(C)C)NC(=O)[C@H](Cc1ccc(O)cc1)NC(=O)[C@H](CO)NC(=O)[C@H](CO)NC(=O)[C@@H](NC(=O)[C@H](CC(=O)O)NC(=O)[C@H](CO)NC(=O)[C@@H](NC(=O)[C@H](Cc1ccccc1)NC(=O)[C@@H](NC(=O)CNC(=O)[C@H](CCC(=O)O)NC(=O)[C@H](C)NC(=O)[C@H](Cc1c[nH]cn1)NC(=O)CNC(=O)CNC(=O)[C@@H](NC(=O)[C@@H]1CCCN1C(=O)[C@@H](NC(=O)CN)[C@@H](C)CC)[C@@H](C)CC)[C@@H](C)O)[C@@H](C)O)C(C)C)C(=O)N[C@@H](C)C(=O)N[C@@H](Cc1c[nH]c2ccccc12)C(=O)N[C@@H](CC(C)C)C(=O)N[C@H](C(=O)N[C@@H](CCCCN)C(=O)NCC(=O)N[C@@H](CCCNC(=N)N)C(=O)NCC(=O)NCC(=O)N[C@@H](CCCCN)C(=O)NCC(=O)N[C@H]1CSSC[C@@H](C(=O)N[C@@H](Cc2ccccc2)C(=O)O)NC(=O)[C@H]([C@@H](C)CC)NC(=O)[C@@H]2CCCN2C(=O)[C@@H]2CCCN2C(=O)[C@H]([C@@H](C)CC)NC(=O)[C@H](CO)NC(=O)[C@H](CCCCN)NC(=O)[C@H]([C@@H](C)O)NC(=O)[C@H](C)NC(=O)[C@H](CCCNC(=N)N)NC(=O)CNC1=O)C(C)C [D-GLP-1-BT9]	100.0 ± 0.0	101 ± 1.2	98.7 ± 0.6	98.8 ± 2.3	100 ± 6.5	94 ± 2	100.0 ± 0.0	88.4 ± 2.3	79.3 ± 2.6	remaining at 4 h, 30 μM (NEP24.11; 37° C.): 69.8 ± 2.6%; remaining at 8 h, 30 μM (NEP24.11; [3]): 58.6 ± 0.7%; remaining at 0.15 h, 60 μM (chymotrypsin; [2]): 17.4 ± 4.9%; remaining at 0.025 h, 60 μM (trypsin): 90.3 ± 1.9%; remaining at 0.05 h, 60 μM (trypsin): 92.2 ± 3.7%; remaining at 0.075 h, 60 μM (trypsin): 97.3 ± 1%; remaining at 0.1 h, 60 μM (trypsin): 94 ± 1.5%; remaining at 0.15 h, 60 μM (trypsin): 94.9 ± 1.8%; remaining at 0.25 h, 60 μM (trypsin): 88.7 ± 3%; remaining at 0.5 h, 60 μM (trypsin): 90.8 ± 3.6%; remaining at 1 h, 60 μM (trypsin): 88.4 ± 3.9%
